Results taken from PubChem BioAssay AID342 (DTP/NCI, 2004).
Where “and” joins values, the source holds several entries; their conditions need not be identical. Equal entries are not always repeated.

Test system: Swiss mice, Sarcoma 180 sc, mean tumor weight T/C
Assay: NCI In Vivo Anticancer Drug Screen. Data for tumor model Sarcoma 180 (subcutaneous) in Swiss mice
Settings: endpoint: mean tumor weight, higher = larger tumour
Method in brief: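 Tumor-bearing mice, transplantable tumor; readout survival or tumor size; result = T/C, treated vs vehicle control.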

[1] = dose: 100.0 mg/kg/injection, schedule: Q01DX007 (ip), vehicle: carboxymethylcellulose (CMC)

In the case of CSCS(=O)C[C@H](CO)NC(=O)/C=C/c1c(C)[nH]c(=O)[nH]c1=O (some centres undefined), the T/C (dose: 0.03 mg/kg/injection, schedule: Q#A X014 (ip), vehicle: saline) is reported as 64 % of control, the T/C (dose: 0.06 mg/kg/injection, schedule: Q01DX007 (ip), vehicle: saline) is reported as 81 % of control and the T/C (dose: 0.06 mg/kg/injection, schedule: Q01DX007 (sc), vehicle: saline) is reported as 107 % of control. For the same compound, the T/C (dose: 0.06 mg/kg/injection, schedule: Q#A X014 (ip), vehicle: saline) was 54 % of control, the T/C (dose: 0.12 mg/kg/injection, schedule: Q#A X014 (ip), vehicle: saline) was 44 % of control and the T/C (dose: 0.13 mg/kg/injection, schedule: Q01DX007 (ip), vehicle: saline) was 50 % of control. The T/C (dose: 0.13 mg/kg/injection, schedule: Q01DX007 (sc), vehicle: saline) was 81 % of control, the T/C (dose: 0.19 mg/kg/injection, schedule: Q03DX003 (ip), vehicle: saline) was 88 % of control and the T/C (dose: 0.25 mg/kg/injection, schedule: Q01DX007 (ip), vehicle: saline) was 39 % of control. For the same compound, the T/C (dose: 0.25 mg/kg/injection, schedule: Q01DX007 (iv), vehicle: saline) was 87 % of control, the T/C (dose: 0.25 mg/kg/injection, schedule: Q01DX007 (oral), vehicle: saline) was 97 % of control and the T/C (dose: 0.25 mg/kg/injection, schedule: Q01DX007 (sc), vehicle: saline) was 78 % of control. The T/C (dose: 0.25 mg/kg/injection, schedule: Q#A X014 (ip), vehicle: saline) was 42 % of control, the T/C (dose: 0.38 mg/kg/injection, schedule: Q03DX003 (ip), vehicle: saline) was 76 % of control and the T/C (dose: 0.4 mg/kg/injection, schedule: Q#A X014 (ip), vehicle: carboxymethylcellulose (CMC)) was 58 % of control. The T/C (dose: 0.5 mg/kg/injection, schedule: Q01DX007 (ip), vehicle: saline) was 32 % of control, the T/C (dose: 0.5 mg/kg/injection, schedule: Q01DX007 (iv), vehicle: saline) was 86 % of control and the T/C (dose: 0.5 mg/kg/injection, schedule: Q01DX007 (oral), vehicle: saline) was 106 % of control. The T/C (dose: 0.5 mg/kg/injection, schedule: Q01DX007 (sc), vehicle: saline) was 17 % of control, the T/C (dose: 0.62 mg/kg/injection, schedule: Q#A X014 (ip), vehicle: carboxymethylcellulose (CMC)) was 27 % of control and the T/C (dose: 0.75 mg/kg/injection, schedule: Q#A X014 (ip), vehicle: carboxymethylcellulose (CMC)) was 20 % of control. The T/C (dose: 1.0 mg/kg/injection, schedule: Q01DX007 (iv), vehicle: saline) was 58 % of control, the T/C (dose: 1.0 mg/kg/injection, schedule: Q01DX007 (oral), vehicle: saline) was 59 % of control and the T/C (dose: 1.5 mg/kg/injection, schedule: Q03DX003 (ip), vehicle: saline) was 89 % of control. For the same compound, the T/C (dose: 2.0 mg/kg/injection, schedule: Q01DX007 (oral), vehicle: saline) was 99 % of control, the T/C (dose: 62.5 mg/kg/injection, schedule: Q#A X014 (ip), vehicle: carboxymethylcellulose (CMC)) was 79 % of control and the T/C (dose: 125.0 mg/kg/injection, schedule: Q#A X014 (ip), vehicle: carboxymethylcellulose (CMC)) was 74 % of control.

For Cc1cc(N=Nc2ccc(Sc3ccc(N=Nc4ccc(O)c(C(=O)O)c4)cc3)cc2)c(N)c(N=Nc2ccc(C(=O)O)cc2)c1N, the T/C (dose: 6.25 mg/kg/injection, schedule: Q01DX007 (ip), vehicle: water) was 114 % of control, the T/C (dose: 12.5 mg/kg/injection, schedule: Q01DX007 (ip), vehicle: water) was 106 % of control and the T/C (dose: 25.0 mg/kg/injection, schedule: Q01DX007 (ip), vehicle: water) was 83 % of control.

CCCCNc1nc(NCCCC)c2nsnc2n1 was tested, and the T/C (dose: 80.0 mg/kg/injection, schedule: Q01DX007 (ip), vehicle: carboxymethylcellulose (CMC)) was 46 % of control and the T/C [1] was 56 % of control.

Nc1c(Br)cc2c(c1Br)Cc1cc(Cl)ccc1-2 was tested, and the T/C (dose: 27.0 mg/kg/injection, schedule: Q01DX007 (ip), vehicle: other) was 52 % of control, the T/C (dose: 41.0 mg/kg/injection, schedule: Q01DX007 (ip), vehicle: other) was 44 % of control and the T/C (dose: 62.0 mg/kg/injection, schedule: Q01DX007 (ip), vehicle: other) was 60 % of control.

With CC1C/C=C2\CSC(NC(=O)/C3=C\N(C/C=C/C=C/C(O)CC(O)CC(=O)N3)C2=O)C(=O)O1 (centres undefined) the T/C (dose: 18.75 mg/kg/injection, schedule: Q01DX007 (ip), vehicle: carboxymethylcellulose (CMC)) was 111 % of control, the T/C (dose: 37.5 mg/kg/injection, schedule: Q01DX007 (ip), vehicle: carboxymethylcellulose (CMC)) was 112 % of control and the T/C (dose: 150.0 mg/kg/injection, schedule: Q01DX007 (ip), vehicle: carboxymethylcellulose (CMC)) was 114 % of control. For the same compound, the T/C (dose: 187.0 mg/kg/injection, schedule: Q01DX007 (ip), vehicle: carboxymethylcellulose (CMC)) was 68 % of control, the T/C (dose: 250.0 mg/kg/injection, schedule: Q01DX007 (ip), vehicle: carboxymethylcellulose (CMC)) was 119 % of control and the T/C (dose: 375.0 mg/kg/injection, schedule: Q01DX007 (ip), vehicle: carboxymethylcellulose (CMC)) was 91 % of control. The T/C (dose: 500.0 mg/kg/injection, schedule: Q01DX007 (ip), vehicle: carboxymethylcellulose (CMC)) was 73 % of control.

For Cc1ccccn1, the T/C (dose: 200.0 mg/kg/injection, schedule: Q01DX007 (ip), vehicle: saline) was 87 % of control and the T/C (dose: 400.0 mg/kg/injection, schedule: Q01DX007 (ip), vehicle: saline) was 151 % of control.

In the case of N#[N+]c1n[nH]nc1C(N)=O, the T/C (dose: 12.5 mg/kg/injection, schedule: Q01DX007 (ip), vehicle: carboxymethylcellulose (CMC)) is reported as 114 % of control and the T/C (dose: 25.0 mg/kg/injection, schedule: Q01DX007 (ip), vehicle: carboxymethylcellulose (CMC)) is reported as 74 % of control.

For O=C(Nc1ccc2cc(S(=O)(=O)O)ccc2c1)c1ccc(N=Nc2c(S(=O)(=O)O)cc3cc(S(=O)(=O)O)cc(NC(=O)c4ccccc4)c3c2O)cc1, the T/C (dose: 41.5 mg/kg/injection, schedule: Q#A X014 (ip), vehicle: methylcellulose (MC)) was 52 % of control and 61 % of control and 77 % of control and the T/C (dose: 93.5 mg/kg/injection, schedule: Q#A X014 (ip), vehicle: methylcellulose (MC)) was 44 % of control and 63 % of control.

With Nc1nc(N)c2[nH]cnc2n1 the T/C (dose: 6.25 mg/kg/injection, schedule: Q#A X014 (ip), vehicle: carboxymethylcellulose (CMC)) was 106 % of control, the T/C (dose: 11.25 mg/kg/injection, schedule: Q#A X014 (ip), vehicle: carboxymethylcellulose (CMC)) was 103 % of control and the T/C (dose: 22.5 mg/kg/injection, schedule: Q#A X014 (ip), vehicle: carboxymethylcellulose (CMC)) was 83 % of control. For the same compound, the T/C (dose: 25.0 mg/kg/injection, schedule: Q#A X014 (ip), vehicle: carboxymethylcellulose (CMC)) was 121 % of control, the T/C (dose: 45.0 mg/kg/injection, schedule: Q#A X014 (ip), vehicle: carboxymethylcellulose (CMC)) was 68 % of control and the T/C (dose: 90.0 mg/kg/injection, schedule: Q#A X014 (ip), vehicle: carboxymethylcellulose (CMC)) was 48 % of control.

With CN(C)[C@@H]1C(=O)C(C(=O)NCNC2(C(=O)O)CCCC2)=C(O)[C@@]2(O)C(=O)C3=C(O)c4c(O)cccc4[C@@](C)(O)[C@H]3C[C@@H]12 the T/C (dose: 25.0 mg/kg/injection, schedule: Q01DX007 (ip), vehicle: saline) was 103 % of control, the T/C (dose: 50.0 mg/kg/injection, schedule: Q01DX007 (ip), vehicle: saline) was 67 % of control and the T/C (dose: 62.0 mg/kg/injection, schedule: Q01DX007 (ip), vehicle: saline) was 103 % of control. The T/C (dose: 75.0 mg/kg/injection, schedule: Q01DX007 (ip), vehicle: saline) was 41 % of control.

O=C(O)c1ccc(-c2ccccc2)cc1 was tested, and the T/C (dose: 50.0 mg/kg/injection, schedule: Q01DX007 (ip), vehicle: carboxymethylcellulose (CMC)) was 95 % of control, the T/C [1] was 118 % of control and the T/C (dose: 200.0 mg/kg/injection, schedule: Q01DX007 (ip), vehicle: carboxymethylcellulose (CMC)) was 120 % of control.

O=S(=O)(OCCCl)OCCCl was tested, and the T/C (dose: 31.2 mg/kg/injection, schedule: Q01DX007 (ip), vehicle: other) was 54 % of control and the T/C (dose: 62.5 mg/kg/injection, schedule: Q01DX007 (ip), vehicle: other) was 66 % of control.

In the case of Clc1ccc(C[P+](c2ccccc2)(c2ccccc2)c2ccccc2)cc1Cl, the T/C (dose: 3.6 mg/kg/injection, schedule: Q01DX007 (ip), vehicle: carboxymethylcellulose (CMC)) is reported as 66 % of control and 69 % of control, the T/C (dose: 5.3 mg/kg/injection, schedule: Q01DX007 (ip), vehicle: carboxymethylcellulose (CMC)) is reported as 63 % of control and 71 % of control and the T/C (dose: 8.0 mg/kg/injection, schedule: Q01DX007 (ip), vehicle: carboxymethylcellulose (CMC)) is reported as 46 % of control.

For CN1CCCC1c1cccnc1 (centres undefined), the T/C (dose: 0.25 mg/kg/injection, schedule: Q01DX007 (ip), vehicle: carboxymethylcellulose (CMC)) was 76 % of control, the T/C (dose: 0.5 mg/kg/injection, schedule: Q01DX007 (ip), vehicle: carboxymethylcellulose (CMC)) was 105 % of control and the T/C (dose: 1.0 mg/kg/injection, schedule: Q01DX007 (ip), vehicle: carboxymethylcellulose (CMC)) was 66 % of control.

In the case of O=C(O)CCc1c[nH]c2ccc(N(CCCl)CCCl)cc12, the T/C (dose: 2.0 mg/kg/injection, schedule: Q01DX007 (ip), vehicle: carboxymethylcellulose (CMC)) is reported as 47 % of control and the T/C (dose: 4.0 mg/kg/injection, schedule: Q01DX007 (ip), vehicle: carboxymethylcellulose (CMC)) is reported as 32 % of control.

For Cc1ccccc1N(C=O)c1ccccc1C, the T/C (dose: 120.0 mg/kg/injection, schedule: Q01DX007 (ip), vehicle: methylcellulose (MC)) was 164 % of control, the T/C (dose: 200.0 mg/kg/injection, schedule: Q01DX007 (ip), vehicle: methylcellulose (MC)) was 150 % of control and the T/C (dose: 1000.0 mg/kg/injection, schedule: Q01DX007 (ip), vehicle: methylcellulose (MC)) was 104 % of control.
